Experiment [1] concerns hairless mice skin. The experiment in a line: Barrier recovery (TEWL) after tape stripping with topical application of reagent. The following applies: for effect on barrier recovery (percent recovery of TEWL): topical, 100 μl aqueous solution containing 1 μM of reagent immediately after tape stripping, TEWL at 1, 3 and 6 hours, vs water control, FIG. 3. Type of experiment: in vivo, hairless mice (HR-1). As to the method:
All experiments were performed on 7-10-week old male hairless mice (HR-1, Hoshino, Japan). All procedures for measuring of skin barrier function, disrupting the barrier and applying the sample were carried out under anesthesia. All experiments were approved by the Animal Research Committee of the Shiseido Research Center in accordance with the National Research Council Guide (National Research Council 1996). Human skin experiments were carried out on the inner forearm of healthy males who gave their informed consent. 4 alpha-phorbol 12,13-[…] (4 alpha-PDD) and Rutenium-Red were purchased from Sigma (Sigma, St.Louis, Mich. USA). Capsaicin, capsazepine, and 2-aminoethoxydiphenyl borate (2-APB) were purchased from Tocris (TOCRIS, Bristol, UK). Camphor was purchased Wako (Wako, Osaka, Japan). Capsaicin is an agonist of TRPV1 and capsazepine is an antagonist of TRPV1 (Caterina et al. 1997). Both 2-APB and camphor are activator of TRPV3 (Chung et al. 2003)(Moquich et al. 2005). 4 alpha-PDD is an activator of TRPV4 and Rutenium-Red is a blocker of TRPV4 (Watanabe et al. 2002).
(§1) Permeability barrier function was evaluated by measurement of transepidermal water loss (TEWL) with an electric water analyzer, as described previously (Denda et al. 1998). For barrier recovery experiments, both sides of flank skin were treated with repeated tape stripping procedure until the TEWL reached 7-10 mg per cm^2 per h, as described previously (Denda et al. 1998). Immediately after barrier disruption, 100 μl of an aqueous solution containing 1 μM of reagent or water alone (control) was applied to the treated area. […] The areas were covered with plastic membranes for 15 min and then the membranes were removed. Two points in one side of flank were measured and 4-8 mice were used to evaluate the effects of each treatment. We always disrupted the barrier within 7:00 AM to 8:00 AM and carried out the following measurements of the barrier repair to avoid the deviation of the repair rate due to the influence of circadian rhythm (Denda et al. 2000). TEWL was then measured over the same sites at 1, 3 and 6 hours after barrier disruption. The barrier recovery results are expressed as percent of recovery, because of variations from day to day in the extent of barrier disruption. In each animal, the percentage of recovery was calculated by the following formula: (TEWL immediately after barrier disruption−TEWL at indicated time point)/(TEWL immediately after barrier disruption−baseline TEWL)×100%. All experiments were performed on 7 to 10-week-old male hairless mice (HR-1, Hoshino, Japan). All procedures of the measurement of skin barrier function, disruption of the barrier and application of test sample were carried out under anesthesia.
The results are expressed as the mean ± SD. Statistical differences between two groups were determined by a two-tailed Student's t-test. In the case of more than 2 groups, differences were determined by ANOVA test (Fisher's protected least significant difference).

Experiment [2] has as its system hairless mice skin. The experiment in a line: Barrier recovery (TEWL) after tape stripping with applied heat plus topical reagent. The following applies: topical application, FIG. 4. It counts as in vivo, hairless mice (HR-1). As to the method:
as §1, with “We always disrupted the barrier within 7:00 AM to 8:00 AM and carried out the following measurements of the barrier repair to avoid the deviation of the repair rate due to the influence of circadian rhythm (Denda et al. 2000).” left out, “All experiments were performed on 7 to 10-week-old male hairless mice (HR-1, Hoshino, Japan). All procedures of the measurement of skin barrier function, disruption of the barrier and application of test sample were carried out under anesthesia.” left out
The results are expressed as the mean ± SD. Statistical differences between two groups were determined by a two-tailed Student's t-test. […]

As for `NCCOB(c1ccccc1)c1ccccc1` [2-aminoethoxydiphenyl borate], the “effect on barrier recovery (percent recovery of TEWL)” value (“effect … (percent recovery of TEWL)” below) in the experiment with hairless mice skin [1] was “did not affect the barrier recovery rate”.
On the same count and under the same terms, the value for `CCCCCCCCCC(=O)O[C@@H]1[C@@H](C)[C@@]2(O)[C@@H](C=C(CO)C[C@@]3(O)C(=O)C(C)=C[C@@H]23)[C@@H]2C(C)(C)[C@]12OC(=O)CCCCCCCCC` [4 alpha-PDD, 4 alpha-phorbol 12,13-didecanoate] was “accelerated the barrier recovery”.
As to `CC12CCC(CC1=O)C2(C)C` (stereo not drawn) [camphor, Camphor], the “effect … (percent recovery of TEWL)” value with hairless mice skin [1] was “did not affect the barrier recovery rate”.
Still for that read-out and setting: the value for `COc1cc(CNC(=O)CCCC/C=C/C(C)C)ccc1O` [capsaicin, Capsaicin] was “delayed the barrier recovery”.
Consider `Oc1cc2c(cc1O)CN(C(=S)NCCc1ccc(Cl)cc1)CCC2` [capsazepine], for which, in the experiment with hairless mice skin [1] (topical application on hairless mice skin after tape stripping, as worded in the summary b8), the “effect on the delay of barrier recovery after capsaicin application” value is “the delay was blocked”. In addition, the “effect … (percent recovery of TEWL)” value in the experiment on hairless mice skin [1] is reported as “accelerated the barrier repair”. For the same compound, the “effect on the delay of the barrier recovery by heat 42° C.” value in the experiment with hairless mice skin [2] (heat 42° C. applied for one hour after tape stripping) was “blocked the delay of the barrier recovery by heat 42 °C”.
Rutenium-Red: the “effect … (percent recovery of TEWL)” value in the experiment with hairless mice skin [1] is “delayed the recovery”. In the experiment with hairless mice skin [2] (heat 36° C. applied for one hour after tape stripping), the “effect on the acceleration of the barrier recovery by heat 36° C.” value is “blocked the acceleration of the barrier recovery by heat 36 °C”.

The record behind these values is patent publication US20070098665A1, “Effects of skin surface temperature on the epidermal permeability barrier homeostasis” (Shiseido Company, Ltd., priority 2005, published 2007).
